Experimental data as given in EP4772514A1, “MACROCYCLIC COMPOUNDS, PREPARATION METHOD THEREFOR, AND USE THEREOF” (Genfleet Therapeutics (Shanghai) Inc., priority 2023, dated 2025).
Structures can show the parent of a compound that is named as a salt.

How the values were obtained:
Assay type in all cases: cell-based
p-ERK [1] = assay: Cell p-ERK assay (HTRF, Advance ERK phospho-T202/Y204 kit) in NCI-H441 cells; details: NCI-H441, human non-small cell lung cancer cell strain, KRAS G12V mutation, 3 h compound incubation
In short: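 AsPC-1 (KRAS G12D) or NCI-H441 (KRAS G12V) cells seeded overnight, then treated 3 h at 37 °C with compound (0.1% DMSO) in RPMI-1640/10% FBS. Lysates assayed for ERK phospho-T202/Y204 by HTRF; inhibition vs DMSO and blank wells, IC50 from four-parameter fit.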

p-ERK [2] = assay: Cell p-ERK assay (HTRF, Advance ERK phospho-T202/Y204 kit) in AsPC-1 cells; details: ASPC1; AsPC-1, human pancreatic cancer cell strain, KRAS G12D mutation; 3 h compound incubation
Procedure: AsPC-1 cells were purchased from ATCC, Cat. No. CRL-1682; NCI-H441 cells were purchased from ATCC, Cat. No. HTB-174; RPMI-1640 medium was purchased from Gibco, Cat. No. 11875-093; FBS was purchased from Gibco, Cat. No. 10099-141C; penicillin/streptomycin double-antibiotic solution (PS) was purchased from Gibco, Cat. No. 15140-122; trypsin (containing EDTA) was purchased from Gibco, Cat. No. 25200-072; DMSO was purchased from VWRAMRESCO, Cat. No. 0231-500ML; 96-well cell culture plates were purchased from Corning, Cat. No. 3599; white-bottomed, opaque 96-well plates were purchased from Cisbio, Cat. No. 66PL96025; Advance ERK phospho-T202/Y204 kit was purchased from Cisbio, Cat. No. 64AERPEH; cell counter was purchased from CHEMOMETEC, model: NC-200; microplate reader was purchased from PerkinElmer, model: EnVision.
AsPC-1, a human pancreatic cancer cell strain endogenously containing a KRAS^G12D mutation, was cultured in a complete medium containing RPMI-1640 + 10% FBS + 1% PS. NCI-H441, a human non-small cell lung cancer cell strain endogenously containing a KRAS^G12V mutation, was cultured in a complete medium containing RPMI-1640 + 10% FBS + 1% PS.
The cells were digested with trypsin (containing EDTA), collected in their corresponding complete media, and counted. The density of the cell suspensions was adjusted with their corresponding complete media, and AsPC-1 cells (10000 cells/well) or NCI-H441 cells (20000 cells/well) were seeded into a 96-well cell culture plate, with the volume of the medium in each well being 80 µL. The cell culture plate was incubated in an incubator at 37 °C with 5% CO2 overnight. A series of 3.16-fold gradient dilutions of a 1000× compound stock solution were prepared with DMSO, and then diluted 200-fold with the complete medium described above to give 5× compound stock solutions. On the day after cell seeding, 20 µL of the 5× compound stock solution was added to each cell culture well. As a result, the final concentration of the compound in the cell culture well became 1×, and the DMSO content in the well was 0.1%. In addition to the compound-treated wells described above, cell-containing DMSO control wells were also set. A complete medium containing 0.5% DMSO was added at 20 µL/well. After the mixture was well mixed, the culture plate was incubated in the incubator at 37 °C with 5% CO2 for another 3 h. The medium was then removed from the culture wells, and 50 µL of cell lysis buffer (from Advance ERK phospho-T202/Y204 kit) was added to each well. The mixture was well mixed, incubated for 30 min, and then transferred to a white-bottomed, opaque 96-well assay plate at 16 µL/well, and separately, 16 µL of cell lysis buffer was added to additional wells (serving as blank wells) in the assay plate. After the transfer was completed, 4 µL of p-ERK HTRF antibody mixture (from Advance ERK phospho-T202/Y204 kit) was added to each well of the assay plate, followed by a 4-hour incubation. The HTRF signal values (RLU) were then measured using a microplate reader, and the inhibition rate of the compound against p-ERK levels was calculated as follows: IR(%) = (RLUDMSO - RLUcompound)/(RLUDMSO - RLUblank) × 100%, where RLUDMSO is the average HTRF signal value from the DMSO control well samples, RLU is the average HTRF signal value from the blank well samples, and RLUcompound is the HTRF signal value from the compound-treated well samples. Using an XLfit software, the IR(%) values were plotted against the logarithm of the compound concentrations, and the dose-response curves were fitted using the four-parameter method to calculate the IC50 values.

NCI-H441 cells = assay: 3D cell proliferation assay (CellTiter Glo-3D) in NCI-H441 cells; details: NCI-H441, human lung cancer cell strain, KRAS G12V mutation; 3D culture, 2% FBS, 5 days; read-out: H441 AP IC50
Source text: MIA PaCa-2 cells were purchased from ATCC, Cat. No. CRL-1420; AsPC-1 cells were purchased from ATCC, Cat. No. CRL-1682; NCI-H441 cells were purchased from ATCC, Cat. No. HTB-174; NCI-H1975 cells were purchased from ATCC, Cat. No. CRL-5908; DMEM medium was purchased from Gibco, Cat. No. 11995-065; RPMI-1640 medium was purchased from Gibco, Cat. No. 11875-093; FBS was purchased from Gibco, Cat. No. 10099-141C; penicillin/streptomycin double-antibiotic solution (PS) was purchased from Gibco, Cat. No. 15140-122; Horse serum was purchased from Gibco, Cat. No. 16050130; trypsin (containing EDTA) was purchased from Gibco, Cat. No. 25200-072; DMSO was purchased from VWRAMRESCO, Cat. No. 0231-500ML; 384-well cell culture plates were purchased from Corning, Cat. No. 3830; white-bottomed, opaque 384-well assay plates were purchased from Corning, Cat. No. 3570; CellTiter Glo-3D kit was purchased from Promega, Cat. No. G9683; cell counter was purchased from CHEMOMETEC, model: NC-200; microplate reader was purchased from PerkinElmer, model: EnVision.
MIA PaCa-2, a human pancreatic cancer cell strain endogenously containing a KRAS^G12Cmutation, was cultured in a complete medium containing DMEM + 10% FBS + 2.5% Horse serum + 1% PS. AsPC-1, a human pancreatic cancer cell strain endogenously containing a KRAS^G12D mutation, was cultured in a complete medium containing RPMI-1640 + 10% FBS + 1% PS. NCI-H441 cells, a human lung cancer cell strain endogenously containing a KRAS^G12V mutation, were cultured in a complete medium containing RPMI-1640 + 10% FBS + 1% PS. NCI-H1975, a KRAS wild-type human lung cancer cell strain whose cell proliferation […], was cultured in a complete medium containing RPMI-1640 + 10% FBS + 1% PS.
The cells were digested with trypsin (containing EDTA), collected in their respective low-serum complete media containing 2% FBS (for MIA Paca-2 cell culture: DMEM + 2% FBS + 0.5% Horse serum + 1% PS), and counted. After the cell density was adjusted as required, MIA PaCa-2 cells (200 cells/well), AsPC-1 cells (800 cells/well), NCI-H441 cells (800 cells/well), or NCI-H1975 cells (400 cells/well) were seeded into a 384-well cell culture plate, with the volume of the medium in each well being 45 µL. The cell culture plate was incubated in an incubator at 37 °C with 5% CO2 overnight. A series of 3.16-fold gradient dilutions of a 1000× compound stock solution were prepared with DMSO, and then diluted 100-fold with the complete medium containing 2% FBS described above to give 10× compound stock solutions. On the day after cell seeding, 5 µL of the 10× compound stock solution was added to each cell culture well. As a result, the final concentration of the compound in the cell culture well became 1×, and the DMSO content in the well was 0.1%. In addition to the compound-treated wells described above, cell-containing DMSO control wells (with 5 µL of the complete medium containing 1% DMSO added to each well) and cell-free medium control wells (containing 50 µL of the complete medium with 2% FBS) were also set. The culture plate was incubated in an incubator at 37 °C with 5% CO2 for another 5 days, and then 30 µL of CellTiter-Glo working solution was added to each well. The mixture was well mixed, incubated for 30 min, left to stand at room temperature for 30 min, and then transferred to a white-bottomed, opaque 384-well assay plate at 40 µL/well. The chemiluminescence values (RLU) were measured using a microplate reader, and the cell proliferation inhibition rate for each well was calculated: IR(%) = (RLUDMSO - RLUcompound)/(RLUDMSO - RLUblank) × 100%, where RLUDMSO is the average RLU signal value from the DMSO control well samples, RLUblank is the average RLU signal value from the medium control well samples, and RLUcompound is the RLU signal value from the compound-treated well samples. […]

Compound	IC50 (p-ERK [1]; Homo sapiens, NCI-H441, 3 h)	IC50 (p-ERK [2])	IC50 (p-ERK [1])	IC50 (NCI-H441 cells)
CCn1nc2c(c1-c1cc(N3CCN(C)CC3)cnc1[C@H](C)OC)CC(C)(C)COC(=O)[C@@H]1CCCN(N1)C(=O)[C@@H](NC(=O)[C@H]1[C@H](C)[C@@H]1C)Cc1nc(cs1)/C=C/2 (single isomer, unassigned) [Compound Z4-1]	71.8 nM	191 nM	–	–
CO[C@@H](C)c1ncc(C#CCN2CCS(=O)(=O)CC2)cc1-c1c2c(nn1C(C)C)/C=C/c1csc(n1)C[C@H](NC(=O)[C@H](Cc1cccc3ncccc13)C(C)C)C(=O)N1CCC[C@H](N1)C(=O)OCC(C)(C)C2 [Compound Z44-2, (2R)-N-((4^2Z,8^3S,2E,6S)-1^5-(5-(3-(1,1-dioxidothiomorpholino)prop-1-yn-1-yl)-2-((S)-1-methoxyethyl)pyridin-3-yl)-1^1-isopropyl-12,12-dimethyl-7,9-dioxo-8^1,8^2,8^3,8^4,8^5,8^6-hexahydro-1^1H-10-oxa-4(4,2)-thiazola-8(1,3)-pyridazina-1(3,4)-pyrazolocyclotridec-2-en-6-yl)-3-methyl-2-(quinolin-5-ylmethyl)butanamide formate]	–	–	15.4 nM	76.3 nM
(2R)-N-((4^2Z,8^3S,2E,6S)-(Ra)-1^5-(5-(3-(1,1-dioxothiomorpholino)prop-1-yn-1-yl)-2-((S)-1-methoxyethyl)pyridin-3-yl)-1^1-ethyl-12,12-dimethyl-7,9-dioxo-8^1,8^2,8^3,8^4,8^5,8^6-hexahydro-1^1H-10-oxo-4(4,2)-thiazola-8(1,3)-pyridazina-1(3,4)-pyrrolacyclotridecaphan-2-en-6-yl)-3-methyl-2-(N-methyl-2-phenylacetamido)butanamide [Compound Z47-2]	–	–	17.3 nM	37.6 nM

More lines, now with the values ahead:

IC50 (p-ERK [1]; Homo sapiens, NCI-H441, 3 h)	IC50 (p-ERK [2])	IC50 (p-ERK [1])	IC50 (NCI-H441 cells)	Compound
157 nM	367 nM	–	–	CCn1nc2c(c1-c1cc(N3CCN(C)CC3)cnc1[C@H](C)OC)CC(C)(C)COC(=O)[C@@H]1CCCN(N1)C(=O)[C@@H](NC(=O)[C@H]1[C@H](C)[C@@H]1C)Cc1nc(cs1)/C=C/2 (atropisomer, axis not shown) [Compound Z4]
0.2 nM	0.04 nM	–	–	CCn1cc2c(c1-c1cc(C#CCN3CCC(C#N)CC3)cnc1[C@H](C)OC)CC(C)(C)COC(=O)[C@@H]1CCCN(N1)C(=O)[C@@H](NC(=O)[C@H]1[C@@H]3COC[C@@H]31)Cc1nc(co1)/C=C/2 (atropisomer, axis not shown; (Ra)) [Compound Z85, (1R,5S,6r)-N-((4^2Z,8^3S,2E,6S)-(Ra)-1^5-(5-(3-(4-cyanopiperidin-1-yl)prop-1-yn-1-yl)-2-((S)-1-methoxyethyl)pyridin-3-yl)-1^1-ethyl-12,12-dimethyl-7,9-dioxo-8^1,8^2,8^3,8^4,8^5,8^6-hexahydro-1^1H-10-oxa-4(4,2)-oxazola-8(1,3)-pyridazina-1(3,4)-pyrrolacyclotridecaphan-2-en-6-yl)-3-oxabicyclo[3.1.0]hexane-6-carboxamide]
0.36 nM	0.07 nM	–	–	CCn1cc2c(c1-c1cc(C#CCN3CCC(C#N)(CN)CC3)cnc1[C@H](C)OC)CC(C)(C)COC(=O)[C@@H]1CCCN(N1)C(=O)[C@@H](NC(=O)[C@H]1[C@H](C)[C@@H]1C)Cc1nc(co1)/C=C/2 (atropisomer, axis not shown; (Ra)) [Compound Z234, (1r,2R,3S)-N-((4^2Z,8^3 S,2E,6S)-(Ra)-1^5-(5-(3-(4-(aminomethyl)-4-cyanopiperidin-1-yl)prop-1-yn-1-yl)-2-((S)-1-methoxyethyl)pyridin-3-yl)-1^1-ethyl-12,12-dimethyl-7,9-dioxo-8^1,8^2,8^3,8^4,8^5,8^6-hexahydro-1^1H-10-oxa-4(4,2)-oxazola-8(1,3)-pyridazina-1(3,4)-pyrrolacyclotridecaphan-2-en-6-yl)-2,3-dimethylcyclopropane-1-carboxamide]
